From patent US5087439A, “Paramagnetic metal-diethylenetriamine-pentaacetic acid partial amide complexes for magnetic resonance imaging” (Salutar, Inc., priority 1989, dated 1992)

Assays:
[1] = Relaxivity (T1, T2) of the compound in human plasma at 10 MHz (37° C.); assay type: physicochemical; details: for T1 Plasma / T2 Plasma: 10 MHz, 37° C.
Protocol: (§1) Relaxivity of the compound in water and in human plasma at 10 MHz (37° C.) (for practical purposes, the lower the T1 in a given part of the body, the brighter the image in MR imaging):
(§2) *T1 and T2 are relaxtion times in msec.

[2] = Relaxivity (T1, T2) of the compound in water at 10 MHz (37° C.); assay type: physicochemical
Protocol: as §1, §2

[3] = vs prior art compound, same dosage, from blood T1 at 20 minutes
Protocol: Pharmacokinetics of the compound in a pure breed beagle dog
A male dog was injected with the test compounds at 100 μ mol/kg. Blood was drawn at the indicated times. The plasma was separated and the relaxivity measured.

[4] = Organ distribution of the compound in male rabbits (organ T1 measured in vitro at 5 MHz); details: 100 μmol/kg; for T1, Skeletal Muscle: male rabbits, 15 min post injection, 5 MHz
Protocol: The test compounds were injected into male rabbits at 100 μmol/kg. The rabbits were sacrificed at 15 minutes post injection and the relaxivity of internal organs was measured in vitro at 5 MHz.
The test compounds were injected into male rabbits at 100 μ mol/kg. The rabbits were sacrificed at 15 minutes post injection and the relaxivity of internal organs was measured in vitro at 5 MHz.

SMILES: CCCCCCNC(=O)CN(CCN(CCN(CC(=O)[O-])CC(=O)NCCCCCC)CC(=O)[O-])CC(=O)[O-].[Gd+3] [Gd DTPA-bishexylamide]
- T1 Plasma ([1]; 1.17 × 10^-3 M): 83 ms
- T2 Plasma ([1]; 1.17 × 10^-3 M): 71 ms
- T1 Plasma ([1]; 1.46 × 10^-4 M): 403 ms
- T1 Plasma ([1]; 1.82 × 10^-5 M): 1087 ms
- T1 Plasma ([1]; 2.34 × 10^-3 M): 48 ms
- T2 Plasma ([1]; 2.34 × 10^-3 M): 39 ms
- T1 Plasma ([1]; 2.92 × 10^-4 M): 249 ms
- T1 Plasma ([1]; 3.68 × 10^-5 M): 881 ms
- T1 Plasma ([1]; 4.67 × 10^-3 M): 26 ms
- T2 Plasma ([1]; 4.67 × 10^-3 M): 21 ms
- T1 Plasma ([1]; 5.84 × 10^-4 M): 145 ms
- T2 Plasma ([1]; 5.84 × 10^-4 M): 123 ms
- T1 Plasma ([1]; 7.30 × 10^-5 M): 622 ms
- T1 Plasma ([1]; 9.12 × 10^-6 M): 1220 ms
- T1 Plasma ([1]; 9.34 × 10^-3 M): 15 ms
- T2 Plasma ([1]; 9.34 × 10^-3 M): 10 ms
- proton relaxation in plasma compared with the prior art compound ([1]; vs Gd DTPA-di(N-methylglucamine), human plasma): almost three times better
- T1 Water ([2]; 1.17 × 10^-3 M): 159 ms
- T2 Water ([2]; 1.17 × 10^-3 M): 147 ms
- T1 Water ([2]; 1.46 × 10^-4 M): 947 ms
- T1 Water ([2]; 2.34 × 10^-3 M): 81 ms
- T2 Water ([2]; 2.34 × 10^-3 M): 76 ms
- T1 Water ([2]; 2.92 × 10^-4 M): 561 ms
- T1 Water ([2]; 4.67 × 10^-3 M): 42 ms
- T2 Water ([2]; 4.67 × 10^-3 M): 36 ms
- T1 Water ([2]; 5.84 × 10^-4 M): 309 ms
- T1 Water ([2]; 7.30 × 10^-5 M): 1374 ms
- T1 Water ([2]; 9.34 × 10^-3 M): 23 ms
- T2 Water ([2]; 9.34 × 10^-3 M): 18 ms
- improvement in image signal intensity [3]: two-fold
- T1, Skeletal Muscle [4]: 397 ms

SMILES: C[NH2+]C[C@H](O)[C@@H](O)[C@H](O)[C@H](O)CO.C[NH2+]C[C@H](O)[C@@H](O)[C@H](O)[C@H](O)CO.O=C([O-])CN(CCN(CC(=O)[O-])CC(=O)[O-])CCN(CC(=O)[O-])CC(=O)[O-].[Gd+3] [Gd DTPA-di(N-methylglucamine), reference compound]
- T1 Plasma ([1]; 1.56 × 10^-3 M): 134 ms
- T2 Plasma ([1]; 1.56 × 10^-3 M): 116 ms
- T1 Plasma ([1]; 1.95 × 10^-4 M): 636 ms
- T1 Plasma ([1]; 3.13 × 10^-3 M): 69 ms
- T2 Plasma ([1]; 3.13 × 10^-3 M): 61 ms
- T1 Plasma ([1]; 3.91 × 10^-4 M): 405 ms
- T1 Plasma ([1]; 6.25 × 10^-3 M): 39 ms
- T2 Plasma ([1]; 6.25 × 10^-3 M): 31 ms
- T1 Plasma ([1]; 7.81 × 10^-4 M): 240 ms
- T1 Plasma ([1]; 9.77 × 10^-5 M): 877 ms
- T1 Water ([2]; 1.56 × 10^-3 M): 163 ms
- T2 Water ([2]; 1.56 × 10^-3 M): 155 ms
- T1 Water ([2]; 1.95 × 10^-4 M): 1015 ms
- T1 Water ([2]; 3.13 × 10^-3 M): 83 ms
- T2 Water ([2]; 3.13 × 10^-3 M): 76 ms
- T1 Water ([2]; 3.91 × 10^-4 M): 582 ms
- T1 Water ([2]; 6.25 × 10^-3 M): 40 ms
- T2 Water ([2]; 6.25 × 10^-3 M): 35 ms
- T1 Water ([2]; 7.81 × 10^-4 M): 309 ms
- T1, Skeletal Muscle [4]: 405 ms
- change in spin lattice (T1) relaxation in the heart and liver ([4]; rabbits, 15 min, heart and liver): fails to produce any change
